Source: the NIST ThermoML archive (doi:10.1021/je060082s)
“And” between values parts separate entries of the source, which are not always exact repeats. Equal entries are not always repeated.

Settings: Liquid; for mass density: 101.33 kPa, Vibrating tube method

CCCCCCCC[n+]1ccn(C)c1.F[B-](F)(F)F [1-methyl-3-octylimidazolium tetrafluoroborate]
Settings | mass density [kg/m3]
273.1 K | 1120.96
278.1 K | 1117.48
283.1 K | 1114.01
288.15 K | 1110.55
293.15 K | 1107.11
298.15 K | 1103.68
303.15 K | 1100.24
313.15 K | 1093.37
323.15 K | 1086.56
333.15 K | 1079.83
343.15 K | 1073.18
353.15 K | 1066.6
363.15 K | 1060.08

Settings | viscosity
273.15 K, 100 kPa | 2291 mPa·s and 2289 mPa·s
278.15 K, 100 kPa | 1477 mPa·s and 1478 mPa·s
283.15 K, 100 kPa | 982 mPa·s
288.15 K, 100 kPa | 673 mPa·s
293.15 K, 100 kPa | 473 mPa·s
298.15 K, 100 kPa | 341 mPa·s
298.15 K, 11200 kPa | 393 mPa·s
298.15 K, 26200 kPa | 475.7 mPa·s
298.15 K, 50500 kPa | 638.3 mPa·s
298.15 K, 51500 kPa | 645.9 mPa·s
298.15 K, 60800 kPa | 720.1 mPa·s
298.15 K, 80200 kPa | 902.3 mPa·s
298.15 K, 100200 kPa | 1130 mPa·s
298.15 K, 116700 kPa | 1359 mPa·s
298.15 K, 117500 kPa | 1371 mPa·s
303.15 K, 100 kPa | 251 mPa·s
308.15 K, 100 kPa | 188.4 mPa·s [middle of 5 runs]
308.15 K, 800 kPa | 190.1 mPa·s
308.15 K, 2900 kPa | 194.9 mPa·s
308.15 K, 5600 kPa | 204.3 mPa·s
308.15 K, 10900 kPa | 214.2 mPa·s
308.15 K, 26000 kPa | 255.1 mPa·s
308.15 K, 50700 kPa | 337.1 mPa·s
308.15 K, 76200 kPa | 444 mPa·s
308.15 K, 100300 kPa | 571.1 mPa·s
308.15 K, 124400 kPa | 731.7 mPa·s
308.15 K, 150200 kPa | 945.5 mPa·s
308.15 K, 200100 kPa | 1527 mPa·s
313.15 K, 100 kPa | 144.1 mPa·s
323.15 K, 100 kPa | 88.8 mPa·s and 88.7 mPa·s
323.15 K, 700 kPa | 89.2 mPa·s
323.15 K, 4900 kPa | 93.5 mPa·s
323.15 K, 10500 kPa | 99.3 mPa·s
323.15 K, 25800 kPa | 118.2 mPa·s
323.15 K, 50800 kPa | 150.1 mPa·s
323.15 K, 75700 kPa | 191.2 mPa·s
323.15 K, 100600 kPa | 241.8 mPa·s
323.15 K, 125500 kPa | 303.1 mPa·s
323.15 K, 149900 kPa | 376.5 mPa·s
323.15 K, 175500 kPa | 469.8 mPa·s
323.15 K, 199800 kPa | 577.3 mPa·s
333.15 K, 100 kPa | 57.8 mPa·s
333.15 K, 10800 kPa | 64.4 mPa·s
333.15 K, 25700 kPa | 74.6 mPa·s
333.15 K, 50300 kPa | 94.3 mPa·s
333.15 K, 75600 kPa | 118.7 mPa·s
333.15 K, 100500 kPa | 147.7 mPa·s
333.15 K, 125300 kPa | 182.5 mPa·s
333.15 K, 150200 kPa | 224.3 mPa·s
333.15 K, 175100 kPa | 274.4 mPa·s
333.15 K, 200000 kPa | 334.1 mPa·s
343.15 K, 100 kPa | 39.4 mPa·s
348.15 K, 100 kPa | 32.8 mPa·s
348.15 K, 300 kPa | 32.7 mPa·s
348.15 K, 1600 kPa | 33.2 mPa·s
348.15 K, 3100 kPa | 33.7 mPa·s
348.15 K, 5400 kPa | 34.4 mPa·s
348.15 K, 10200 kPa | 36 mPa·s
348.15 K, 25600 kPa | 41.4 mPa·s
348.15 K, 50300 kPa | 51.5 mPa·s
348.15 K, 75600 kPa | 63.6 mPa·s
348.15 K, 100500 kPa | 77.7 mPa·s
348.15 K, 125400 kPa | 94.3 mPa·s
348.15 K, 150400 kPa | 114.3 mPa·s
348.15 K, 175300 kPa | 136.8 mPa·s
348.15 K, 200200 kPa | 163.6 mPa·s
348.15 K, 224200 kPa | 193.7 mPa·s
353.15 K, 100 kPa | 28.1 mPa·s

CCCCCCCC[n+]1ccn(C)c1.F[P-](F)(F)(F)(F)F [1-octyl-3-methylimidazolium hexafluorophosphate]
Settings | mass density
273.1 K | 1256.13 kg/m3
278.1 K | 1252.25 kg/m3
283.1 K | 1248.38 kg/m3
288.15 K | 1244.52 kg/m3
293.15 K | 1240.68 kg/m3
298.15 K | 1236.84 kg/m3 and 1236.75 kg/m3
303.15 K | 1233.01 kg/m3
313.15 K | 1225.34 kg/m3
323.15 K | 1217.7 kg/m3 and 1217.68 kg/m3
333.15 K | 1210.29 kg/m3
343.15 K | 1202.88 kg/m3
353.15 K | 1195.49 kg/m3
363.15 K | 1188.13 kg/m3

Settings | viscosity
273.15 K, 100 kPa | 6410 mPa·s
278.15 K, 100 kPa | 3889 mPa·s
283.15 K, 100 kPa | 2439 mPa·s
293.15 K, 100 kPa | 1065 mPa·s
298.15 K, 100 kPa | 734.4 mPa·s and 731.6 mPa·s
298.15 K, 10200 kPa | 853.7 mPa·s
298.15 K, 24600 kPa | 1041 mPa·s
298.15 K, 39900 kPa | 1299 mPa·s
303.15 K, 100 kPa | 519.3 mPa·s
308.15 K, 100 kPa | 374.6 mPa·s and 370.9 mPa·s
308.15 K, 5500 kPa | 404.3 mPa·s
308.15 K, 9900 kPa | 430.2 mPa·s
308.15 K, 25600 kPa | 531.2 mPa·s
308.15 K, 48400 kPa | 716.3 mPa·s
308.15 K, 74900 kPa | 1008 mPa·s
313.15 K, 100 kPa | 276.8 mPa·s
323.15 K, 100 kPa | 158 mPa·s and 159 mPa·s and 159.2 mPa·s
323.15 K, 24800 kPa | 217.5 mPa·s
323.15 K, 26300 kPa | 222 mPa·s
323.15 K, 49900 kPa | 295 mPa·s
323.15 K, 60500 kPa | 348.9 mPa·s
323.15 K, 74800 kPa | 395 mPa·s
323.15 K, 76000 kPa | 404.2 mPa·s
323.15 K, 99700 kPa | 524.6 mPa·s
333.15 K, 100 kPa | 97 mPa·s and 97.9 mPa·s and 97.8 mPa·s
333.15 K, 13500 kPa | 115.2 mPa·s
333.15 K, 30300 kPa | 140.6 mPa·s
333.15 K, 50400 kPa | 176.2 mPa·s
333.15 K, 75100 kPa | 230.4 mPa·s
333.15 K, 100400 kPa | 300.7 mPa·s
333.15 K, 125200 kPa | 387.3 mPa·s
343.15 K, 100 kPa | 63.7 mPa·s [middle of 4 runs]
343.15 K, 10000 kPa | 70 mPa·s
343.15 K, 21300 kPa | 81 mPa·s
343.15 K, 51800 kPa | 112.7 mPa·s
343.15 K, 72900 kPa | 138.7 mPa·s
343.15 K, 100300 kPa | 182.6 mPa·s
343.15 K, 125900 kPa | 233.7 mPa·s
343.15 K, 148800 kPa | 296.2 mPa·s
343.15 K, 175900 kPa | 378.4 mPa·s
353.15 K, 100 kPa | 43 mPa·s
